This note sets out measurements from patent EP0254179A2, “Tetrahydrobenzothiazoloquinolines, their preparation and use” (BOEHRINGER INGELHEIM KG, priority 1986, dated 1988).

Where only a bound is given, the exact number is not on record here.

The subject of test [1] is präsynaptischer Dopaminrezeptoren. The test is described as follows: Inhibition of exploratory activity (light-beam interruptions by groups of 5 mice). Particulars: 10 mg/kg subcutaneous, measured 1 hour after injection over 5 minutes, versus saline controls. It counts as in vivo, Mäusen. The text has this:
(§1) Im Vergleich zu der bekannten racemischen Verbindung 6-Methyl-9-amino-5,6,6a,7-tetrahydro-4H-benzo[de]thiazolo[4,-5-g] chinolin wurden daher beispielsweise die Verbindungen ((-)-Enantiomere) • a= 9-Amino-5,6,6a,7-tetrahydro-4H-benzo[de]thiazolo[4,5-g] chinolin • b= 6-Ethyl-9-amino-5,6,6a,7-tetrahydro-4H-benzo[de]-thiazolo[4,5-g]chinolin. • c= 6-Propyl-9-amino-5,6,6a,7-tetrahydro-4H-benzo[de]-thiazolo[4,5-g]chinolin • d= 6-Methyl-9-benzylamino-5,6,6a,7-tetrahydro-4H-benzo[de]-thiazolo[4,5-g]chinolin • e= 6-Ethyl-9-methylamino-5,6,6a,7-tetrahydro-4H-benzo[de]-thiazolo[4,5-g]chinolin • f= 6-Ethyl-9-dimethylamino-5,6,6a,7-tetrahydro-4H-benzo[de]thiazolo[4,5-g]chinolin. hinsichtlich ihrer Beeinflussung präsynaptischer Dopaminrezeptoren untersucht, wobei zunächst die Wirkung auf die exploratorische Aktivität von Mäusen getestet und anschließend die Beeinflussung der Dopaminutilisation und der Dopaminsynthese an Ratten wie folgt bestimmt wurden:
Die Aktititätsmessung erfolgte in Beobachtungskäfigen, die mit einer Infrarotlichtschranke versehen sind. Gemessen wird die Häufigkeit der Unterbrechung des Lichtstrahles durch eine Gruppe von 5 Mäusen innerhalb von 5 Minuten. Gruppen von jeweils 5 Tieren erhalten die zu untersuchende Substanz in einer Dosis von 10 mg/kg subkutan injiziert. 1 Stunde später werden die Tiere in die Beobachtungskäfige gebracht, wo sofort mit der Messung der exploratorischen Aktivität über 5 Minuten begonnen wird. Parallel bzw. alternierend zu Gruppen, die mit Testsubstanz behandelt wurden, werden kochsalzbehandelte Kontrollgruppen (o,9%ig; 0,1 ml/10 g Körpergewicht subkutan) untersucht.
Alle diejenigen Substanzen wurden in die weitere Versuchsreihe aufgenommen, die als Vorbedingung eine Hemmung der exploratorischen Aktivität gegenüber den Kontrolltieren von >50% aufwiesen, wie es beispielsweise für die oben näher bezeichneten Verbindungen a,b,c,d,e, und f nachzuweisen war.

Test [2] shares this test system. The test is described as follows: Determination of dopamine utilisation after AMPT treatment (whole-brain dopamine by HPLC with electrochemical detection). It counts as in vivo, Ratten. Particulars: rats; 10 mg/kg s.c. at 0 and 2 hours; AMPT 250 mg/kg intraperitoneal; brains taken at 4 hours.
Description: as §1
Die Dopaminutilisation wurde an Ratten gemessen. Bei Tieren, die mit α-Methylparatyrosin (AMPT) (250 mg/kg intraperitoneal) behandelt werden, fällt die Dopaminkonzentration im Gesamthirn mit fortschreitender Versuchsdauer ab. Durch Substanzen, die an Autorezeptoren wirken, kann der Dopaminabfall (im Vergleich zu mit Kochsalzlösung behandelten Kontrolltieren) vermindert werden.
Die Testsubstanzen werden zum Zeitpunkt 0 und 2 Stunden des Experiments - soweit nicht anders angegeben - zur Erstellung einer Dosis-Wirkungskurve mit 0,01 bis 10 mg/kg s.c. appliziert. Zum Zeitpunkt 4 Stunden des Experiments werden die Tiere getötet und die Gehirne der Dopaminbestimmung mittels Hochdruckflüssigkeitchromatographie mit elektrochemischer Detektion zugeführt. Bestimmt wird die durch die Testsubstanz bewirkte prozentuelle Steigerung der Dopaminutilisation nach AMPT-Behandlung.

For the compound `CN1CCc2cccc3c2C1Cc1sc(NCc2ccccc2)nc1-3` (stereo not drawn) [d, 6-Methyl-9-benzylamino-5,6,6a,7-tetrahydro-4H-benzo[de]thiazolo[4,5-g]chinolin], the “Hemmung der exploratorischen Aktivität gegenüber den Kontrolltieren” value in test [1] is reported as over 50%.
Consider `CCCN1CCc2cccc3c2C1Cc1sc(N)nc1-3` (stereo not drawn) [c, 6-Propyl-9-amino-5,6,6a,7-tetrahydro-4H-benzo[de]thiazolo[4,5-g]chinolin], for which the “Hemmung der exploratorischen Aktivität gegenüber den Kontrolltieren” value in test [1] was over 50%. Also, the “Prozentuale Steigerung der Dopaminutilisation” value in test [2] worked out at 112%.
For `CN1CCc2cccc3c2C1Cc1sc(N)nc1-3` (racemic) [Vergleich, 6-Methyl-9-amino-5,6,6a,7-tetrahydro-4H-benzo[de]thiazolo[4,5-g] chinolin, reference compound], in test [2], the “Prozentuale Steigerung der Dopaminutilisation” value is listed as 34%.
With `CCN1CCc2cccc3c2C1Cc1sc(NC)nc1-3` (stereo not drawn) [e, 6-Ethyl-9-methylamino-5,6,6a,7-tetrahydro-4H-benzo[de]thiazolo[4,5-g]chinolin], the “Hemmung der exploratorischen Aktivität gegenüber den Kontrolltieren” value in test [1] is over 50%.
On the same count and under the same terms, the value for `CCN1CCc2cccc3c2C1Cc1sc(N(C)C)nc1-3` (stereo not drawn) [f, 6-Ethyl-9-dimethylamino-5,6,6a,7-tetrahydro-4H-benzo[de]thiazolo[4,5-g]chinolin] was over 50%; that for `Nc1nc2c(s1)CC1NCCc3cccc-2c31` (stereo not drawn) [a, 9-Amino-5,6,6a,7-tetrahydro-4H-benzo[de]thiazolo[4,5-g] chinolin] was over 50%.
Regarding `CCN1CCc2cccc3c2C1Cc1sc(N)nc1-3` (stereo not drawn) [b, 6-Ethyl-9-amino-5,6,6a,7-tetrahydro-4H-benzo[de]thiazolo[4,5-g]chinolin], the “Hemmung der exploratorischen Aktivität gegenüber den Kontrolltieren” value in test [1] is over 50%. Also, in test [2], the “Prozentuale Steigerung der Dopaminutilisation” value is 64%.
